Measurements published in patent US7683061B2, “Triazine dimers for the treatment of autoimmune diseases” (ProMetic BioSciences Inc., priority 2003, dated 2010).
Read-outs that look alike come from different tables or passages of the source.

Columns and labels:
[1] = test system: female Lewis rats, collagen-induced arthritis; assay: Collagen-induced arthritis (CIA); assay type: in vivo; details: intravenous; by day 14 and beyond
Description: Collagen-induced arthritis (CIA) was induced in female Lewis rats by intradermal administration of heterologous (bovine) type II collagen (250 μg) solubilized in 0.1 M acetic acid and emulsified in Complete Freund's Adjuvant (CFA). Rats were treated with the vehicle or methotrexate or compound 1 by intravenous injections at day 8, 9, 12, 14 and 16. Synovitis typically develops 12-15 days postimmunization in 80-90% of the animals. Once arthritis appears, each paw was examined two to three times a week. Both the incidence and severity of the arthritis was evaluated. Incidence is defined as the number of rats with clinical evidence of joint inflammation during the study period while severity was quantified by scoring daily each paw integer on a scale of 0 to 4 (0=normal, 4=maximum; Table 7) based on increasing levels of swelling, periarticular erythema and stiffness. The sum of the scores for all four paws was calculated as the arthritic index with a maximum possible score of 16 per rat. Since CIA primarily affects hind limbs, scores of 6-8 represent severe arthritis.

[2] = test system: female Lewis rats, adjuvant-induced arthritis; assay: Freund's adjuvant-induced arthritis (AIA); assay type: in vivo
Excerpt: AIA was induced in female Lewis rats by the injection of lyophilized Mycobacterium butyricum suspended in mineral oil into the footpad. The development of aridity was monitored over a 3 weeks period post-adjuvant injection, inflammation peaks at day 3 following the adjuvant administration. Immune activation appears around day 14. Compounds were orally or intravenously administered at different doses at day −3, −2 and −1 pre-adjuvant injection and at different regimen as specified in the exponent starting from day 10 through 21 post-adjuvant injection or animals were treated with oral admiration of compound 19a from day −3 to day 21. Body weight was recorded. The arthritis index, which is a measure of inflammation (oedema), redness and stiffness of the articulations, was used to monitor the development of the disease. The degree of arthritis was determined by measuring two perpendicular diameters of the ankles in the mediolateral and dorsoventral planes using a caliper. Joint circumference in millimeters is then calculated using a geometric formula. Both the incidence and severity of the arthritis was evaluated. Incidence is defined as the number of rats with clinical evidence of joint inflammation during the study period.

[3] = biological target: T1, Fc portion of human IgG (binding of protein A to human IgG); assay: Competitive protein A binding ELISA; details: Table 1
T1 construct: fused on or other part: Horseradish peroxidase chemically conjugated to the IgG (HRP-IgG)
Description: As described above, this assay evaluates the ability of the exemplified compounds to mimic protein A. Such compounds can bind to the Fc portion of human IgG as ascertained by the inhibition of binding of protein A to human IgG. The competitive protein A binding ELISA assay was performed on a 96-well plate Maxisorp surface to enhance the binding of protein A to the bottom of the plate. The wells were coated with 100 μL of protein A (0.8 μg) and incubated overnight at 4° C. After incubation, unbound protein A was removed by three washes with phosphate buffer saline (PBS). The plate was then incubated with 100 μL/well of a 2% solution of bovine serum albumin (BSA) for 1 h at 37° C. to block non specific protein binding. After incubation, the plate was washed to times with PBS. 50 μL of compound or protein A, diluted in PBS or PBS-20% DMSO at appropriate concentration, were added to the wells followed by addition of 50 μL of peroxidase-conjugated human IgG (HRP-IgG). After 1 h incubation at 37° C., the plate was washed free times with PBS to remove unbound HRP-IgG. Bound HRP-IgG was detected by incubation with 100 μL of 2,2′-Azino-di[3-ethylbenzothiazoline sulfonate]diammonium salt crystals (ABTS) solution for 20 min in the dark at room temperature. The plate was then read at 405 nm on a EL 800, universal Microplate reader (Bio-Tek). Data was analyzed in Microsoft Excel and the concentration of compound which inhibits 50% binding of protein A (IC50) was calculated using Prism software.
Table 1 represents the IC50 of compounds tested in the competitive protein A binding ELISA assay, which consists of a side-by-side analysis in PBS and PBS-20% DMSO. DMSO was used to increase the solubility of some of the compounds.

[4] = test system: TNFα production, J774A-1 cells; assay: LPS-induced TNFα production in J774A-1 cells (ELISA); assay type: cell-based; details: Mus musculus, J774.A1, 24 h, read-out: IC50 (μM), inhibition of TNFα released by LPS induction
Description: Effect of compounds on TNFα production was measured by ELISA using J774-1 cells stimulated by LPS. J774-1 cells were cultured in the presence or absence of LPS and compound. Cells were cultured at 37° C. for 24 h and thereafter the supernatants were collected for the determination of the concentration of TNFα by ELISA as recommended by the manufacturer (BD Biosciences). Data was analyzed in Microsoft Excel and the concentration of compound which inhibits 50% of TNFα production (IC50) was calculated using Prism software.

MRL/lpr mice = assay: SLE-like syndrome in MRL/lpr mice; assay type: in vivo; details: control group 10%
Excerpt: FIG. 5 is an example of the effect of compounds on survival of MRL/lpr mice. These mice also spontaneously develop SLE-like syndrome. MRL/lpr have a homozygous fas mutation, which accelerates autoimmunity. […] Furthermore, compounds 1 and 20 increase the survival (40%) compared to the control group (10%).

RAW 264.7 cells = assay: Phagocytosis of FITC-immune complexes by RAW 264.7 cells; assay type: cell-based; details: Mus musculus, RAW264.7; 20 μM; read-out: inhibition of phagocytosis of IC
Description: This assay was performed to determine the ability of protein A mimic compounds to stimulate or inhibit uptake of FITC-Immune Complex (IC). FITC-IC was prepared by mixing human serum albumin (HSA)-fluorescein isothiocyanate (FITC) with mouse IgG anti-HSA at a 1:4 ratio (four molecules of antibody for one molecule of antigen) on a rotary shaker for 1 h at room temperature. Soluble IC was then incubated with or without compounds or protein A for 10 min. This mixture was added to RAW 264.7 cells and incubated for 2 h at 37° C. for IC phagocytosis. After incubation, cells were washed twice in cold PBS (5 min, 1200 rpm) and fixed with 500 μL PBS containing 2% formaldehyde. FITC signal taken up by RAW 264.7, which is indicative of IC phagocytosis, was determined by flow cytometry analysis in a Becton Coulter counter with an argon laser and signal was measured through a 530/30 nm filter.

[5] = PBS-20% DMSO, read-out: IC50 (μM): Assay in PBS-20% DMSO

IC50 ([3]; PBS, read-out: IC50 (μM): Assay in PBS) | Structure (SMILES) | reduction in the severity of arthritis (arthritic index) [1] | inhibition of chronic inflammation (days 12 to 21) ([2]; days 15 to 21) | reduction in the severity of arthritis (inflammatory index) ([2]; intravenous, by day 19 and over, FIG. 10) | IC50 [3, 5] | IC50 [4] | survival of MRL/lpr mice (MRL/lpr mice) | inhibition at 20 µM (RAW 264.7 cells)
 | CN(Cc1cnc2nc(N)nc(N)c2n1)c1ccc(C(=O)N[C@@H](CCC(=O)O)C(=O)O)cc1 [methotrexate, reference compound] | 50% | strong and significant inhibition of inflammation | 50% |  |  |  | 
 | OCCNc1nc(NCCc2ccc(Nc3nc(NCCc4ccc(O)cc4)nc(Nc4ccccc4)n3)cc2)nc(Nc2ccccc2)n1 [Compound 20] |  |  |  | 26 µM | 23.3 µM | 40% | 
33 µM | N=C(N)NCCNc1nc(NCCc2ccc(Oc3nc(NCCc4ccc(O)cc4)nc(Nc4ccccc4)n3)cc2)nc(Nc2ccccc2)n1 [Compound 14] |  |  |  | 63 µM | 11.8 µM |  | ~50%
